Assay results as given in ChEMBL document CHEMBL1151921 (Bioorg Med Chem, 2009).
pKi: −log10 of the molar value.

Legend:
D(2) dopamine receptor = D(2) dopamine receptor (Rattus norvegicus, UniProt P61169); test: Displacement of [3H]spiperone from rat dopamine D2L receptor expressed in HEK293 cells; type: cell-based
D(3) dopamine receptor = D(3) dopamine receptor (Rattus norvegicus, UniProt P19020); test: biochemical
[1] = molecular target: D(2) dopamine receptor (Homo sapiens) (UniProt P14416); test: Activity at human dopamine D2L receptor expressed in CHO cells assessed as stimulation of [35S]GTPgammaS binding relative to dopamine; type: functional, cell-based
D(2) dopamine receptor (Homo sapiens), sequence (P14416 whole entry): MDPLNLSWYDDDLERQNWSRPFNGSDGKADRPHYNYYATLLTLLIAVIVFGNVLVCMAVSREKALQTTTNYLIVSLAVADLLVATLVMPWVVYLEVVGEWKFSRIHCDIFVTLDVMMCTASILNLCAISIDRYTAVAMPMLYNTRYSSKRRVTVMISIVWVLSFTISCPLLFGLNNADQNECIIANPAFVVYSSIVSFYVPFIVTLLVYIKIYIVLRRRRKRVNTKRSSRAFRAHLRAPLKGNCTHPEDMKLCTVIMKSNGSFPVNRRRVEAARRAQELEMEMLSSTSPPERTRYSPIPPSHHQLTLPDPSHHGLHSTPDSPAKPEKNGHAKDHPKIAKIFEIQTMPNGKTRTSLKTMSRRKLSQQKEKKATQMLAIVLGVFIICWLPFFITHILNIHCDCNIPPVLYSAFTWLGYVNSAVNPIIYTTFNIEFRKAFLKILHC

D(2) dopamine receptor, sequence (P61169 whole entry): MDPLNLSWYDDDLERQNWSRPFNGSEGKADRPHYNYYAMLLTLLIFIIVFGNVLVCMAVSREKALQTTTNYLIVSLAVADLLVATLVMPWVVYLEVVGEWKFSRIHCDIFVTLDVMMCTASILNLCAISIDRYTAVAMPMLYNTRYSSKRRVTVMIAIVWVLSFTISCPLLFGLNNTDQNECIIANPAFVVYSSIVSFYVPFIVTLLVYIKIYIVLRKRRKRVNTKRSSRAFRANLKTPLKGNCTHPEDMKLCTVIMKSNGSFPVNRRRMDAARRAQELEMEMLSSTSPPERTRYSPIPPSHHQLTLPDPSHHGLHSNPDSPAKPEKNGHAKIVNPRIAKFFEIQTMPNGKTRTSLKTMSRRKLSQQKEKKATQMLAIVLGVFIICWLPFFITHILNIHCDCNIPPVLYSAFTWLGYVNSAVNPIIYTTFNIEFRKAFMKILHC
D(3) dopamine receptor, sequence (P19020 whole entry): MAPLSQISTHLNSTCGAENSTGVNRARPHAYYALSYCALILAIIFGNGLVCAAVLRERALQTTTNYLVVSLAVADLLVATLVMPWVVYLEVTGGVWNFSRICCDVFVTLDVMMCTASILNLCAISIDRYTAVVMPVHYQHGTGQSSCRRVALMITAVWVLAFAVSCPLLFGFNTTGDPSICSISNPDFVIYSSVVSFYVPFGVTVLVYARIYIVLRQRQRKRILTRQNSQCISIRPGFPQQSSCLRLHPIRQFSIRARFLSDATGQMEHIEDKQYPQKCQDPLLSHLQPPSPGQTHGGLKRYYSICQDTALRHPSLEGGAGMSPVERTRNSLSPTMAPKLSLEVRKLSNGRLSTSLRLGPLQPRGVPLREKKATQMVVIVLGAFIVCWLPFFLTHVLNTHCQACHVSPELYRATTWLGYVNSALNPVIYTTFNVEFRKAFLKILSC

Row | Compound | pKi (D(2) dopamine receptor) | pKi (D(3) dopamine receptor) | Emax [1]
1 | CCCN(CCN1CCN(C(=O)c2cc3ccccc3o2)CC1)C1CCc2c(O)cccc2C1 (stereo not drawn) | 6.88 | 8.28 | 
2 | CCCN(CCN1CCN(Cc2cc3ccccc3[nH]2)CC1)C1CCc2ccc(O)cc2C1 (stereo not drawn) | 7.00 | 8.32 | 
3 | CCCN(CCC)C1CCc2c(O)cccc2C1 (stereo not drawn) |  |  | 77.8%
4 | CCCN(CCN1CCN(c2ccc(-c3ccccc3)cc2)CC1)[C@H]1CCc2nc(N)sc2C1 | 6.58 |  | 
5 | CCCN(CCN1CCN(C(=O)c2ccc3[nH]ccc3c2)CC1)C1CCc2ccc(O)cc2C1 (stereo not drawn) | 7.18 |  | 
6 | CCCN(CCN1CCN(C(=O)c2ccc3[nH]ccc3c2)CC1)[C@H]1CCc2c(O)cccc2C1 |  |  | 80%
